Reference: patent publication US7977387B2, “Aminobenzophenone compounds” (Leo Pharma A/S, priority 2003, dated 2011)

How the values were obtained:
TNF-α = experiment: Inhibition of TNF-α secretion in LPS stimulated peripheral blood mononuclear cells; type: cell-based; conditions: PBMC; LPS stimulated human peripheral blood mononuclear cells, 18 hours, ELISA; read-out: The median inhibition concentration (IC50, nM) of TNF-α
Summary of the method: (§1)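 Human PBMCs (5×10^5 cells/ml, RPMI 1640 + 2% FCS) pre-treated with compound 30 min, then stimulated with LPS ([…]) for 18 h. Secreted IL-1β and TNF-α quantified by ELISA; IC50 values calculated.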

IL-1β = experiment: Inhibition of IL-1β secretion in LPS stimulated peripheral blood mononuclear cells; type: cell-based; conditions: PBMC; LPS stimulated human peripheral blood mononuclear cells, 18 hours, ELISA; read-out: The median inhibition concentration (IC50, nM) of IL-1β
Summary of the method: as §1

[1] = test system: LPS induced TNF-α response; experiment: In vivo screening model of LPS induced TNF-α response in mice; conditions: Mus musculus, mice (C3H/HeN), dosed 1 hour prior to LPS, plasma TNF-α 80-90 minutes after LPS, vs LPS treated control group, read-out: In vivo inhibition of LPS induced TNF-α production (in %)
Experimental: In Vivo Screening Model of LPS Induced TNF-α Response in Mice
To study the effect of compounds of the present invention in vivo, an in vivo screening model of LPS induced TNF-α response in mice was set up as follows: Groups of 6 mice (C3H/HeN, female, about 8 weeks (20 g), Bomholtgaard) were dosed with test compounds in suspension vehicle 1 hour prior to LPS administration (LPS from E. coli 055:B5, L-4005, Sigma). At time 0, the mice were dosed ip with 1.0 mg LPS/kg. After anesthetization with Hypnorm/Dormicum, the mice were bled from the periorbital venous plexus 80-90 minutes after LPS administration. The blood samples were sampled in EDTA stabilised tubes and centrifuged at 4000 rpm for 10 minutes at 4° C. The plasma level of TNF-α was analysed by ELISA. Compound 156 of WO 98/32730 was used as reference compound. The plasma level of TNF-α was determined using a sandwich ELISA. Microtiter plates were coated with a monoclonal antibody against mouse TNF-α, washed and blocked with a casein buffer. Samples of mouse TNF-α recombinant standards were added to the wells of the microtiter plates and incubated. All standards were tested in triplicate, all plasma samples in single. After sample and standard incubation, the plates were washed and incubated with biotinylated polyclonal secondary antibody against mouse TNF-α and washed. Enzyme conjugate was added to all wells and incubated. Substrate was added and the enzyme/substrate reaction stopped after 15 minutes at room temperature with 1M H2SO4. The colour development (OD) was measured at 450 nm on an ELISA reader and the background OD at 620 nm was subtracted. […] The results of the tested compounds are indicated as a percentage inhibition compared to an LPS treated control group. Compounds were tested at 10 mg/kg. The Mann-Whitney test was used to compare drug treated groups to the LPS treated control group (p<0.05).

## Cc1ccc(C(=O)NCC(F)(F)F)cc1C(=O)c1ccc(Nc2ccc(F)cc2F)cc1Cl [Compound 148, 3-[2-Chloro-4-(2,4-difluoro-phenylamino)-benzoyl]-4-methyl-N-(2,2,2-trifluoro-ethyl) benzamide]
TNF-α
  IC50: 0.2 nM
IL-1β
  IC50: 0.6 nM
[1]
  inhibition at 10 mg/kg: 71%

## CCNC(=O)c1ccc(C)c(C(=O)c2ccc(Nc3ccc(F)cc3F)cc2Cl)c1 [Compound 149, 3-[2-Chloro-4-(2,4-difluoro-phenylamino)-benzoyl]-N-ethyl-4-methyl-benzamide]
TNF-α
  IC50: 0.5 nM
IL-1β
  IC50: 1.6 nM
[1]
  inhibition at 10 mg/kg: 89%

## Cc1ccc(C(=O)NCC(C)O)cc1C(=O)c1ccc(Nc2ccc(F)cc2F)cc1Cl (stereo not drawn) [Compound 151, 3-[2-Chloro-4-(2,4-difluoro-phenylamino)-benzoyl]-N-(2-hydroxy-propyl)-4-methyl-benzamide]
TNF-α
  IC50: 0.4 nM
IL-1β
  IC50: 1.8 nM
[1]
  inhibition at 10 mg/kg: 99%

## Cc1ccc(C(=O)NCC(O)CO)cc1C(=O)c1ccc(Nc2ccc(F)cc2F)cc1Cl (stereo not drawn) [Compound 152, 3-[2-Chloro-4-(2,4-difluoro-phenylamino)-benzoyl]-N-(2,3-dihydroxy-propyl)-4-methyl-benzamide]
TNF-α
  IC50: 0.6 nM
IL-1β
  IC50: 2.8 nM
[1]
  inhibition at 10 mg/kg: 99%

## CCC(CO)NC(=O)c1ccc(C)c(C(=O)c2ccc(Nc3ccc(F)cc3F)cc2Cl)c1 (stereo not drawn) [Compound 153, 3-[2-Chloro-4-(2,4-difluoro-phenylamino)-benzoyl]-N-(1-hydroxymethyl-propyl)-4-methyl-benzamide]
TNF-α
  IC50: 1.6 nM
IL-1β
  IC50: 8.9 nM
[1]
  inhibition at 10 mg/kg: 86%

## Cc1ccc(C(=O)NCCCO)cc1C(=O)c1ccc(Nc2ccc(F)cc2F)cc1Cl [Compound 155, 3-[2-Chloro-4-(2,4-difluoro-phenylamino)-benzoyl]-N-(3-hydroxy-propyl)-4-methyl-benzamide]
TNF-α
  IC50: 0.2 nM
IL-1β
  IC50: 0.6 nM
[1]
  inhibition at 10 mg/kg: 91%

## Cc1ccc(C(=O)NC(C)(C)CO)cc1C(=O)c1ccc(Nc2ccc(F)cc2F)cc1Cl [Compound 156, 3-[2-Chloro-4-(2,4-difluoro-phenylamino)-benzoyl]-N-(2-hydroxy-1,1-dimethyl-ethyl)-4-methyl-benzamide]
TNF-α
  IC50: 0.9 nM
IL-1β
  IC50: 4.5 nM
[1]
  inhibition at 10 mg/kg: 73%

## Cc1ccc(C(=O)NC(C)(CO)CO)cc1C(=O)c1ccc(Nc2ccc(F)cc2F)cc1Cl [Compound 157, 3-[2-Chloro-4-(2,4-difluoro-phenylamino)-benzoyl]-N-(2-hydroxy-1-hydroxymethyl-1-methyl-ethyl)-4-methyl-benzamide]
TNF-α
  IC50: 0.9 nM
IL-1β
  IC50: 2.2 nM
[1]
  inhibition at 10 mg/kg: 83%

## Cc1ccc(C(=O)NCCF)cc1C(=O)c1ccc(Nc2ccc(F)cc2F)cc1 [Compound 163, 3-[4-(2,4-Difluoro-phenylamino)-benzoyl]-N-(2-fluoro-ethyl)-4-methyl-benzamide]
TNF-α
  IC50: 2.5 nM
IL-1β
  IC50: 2.5 nM
[1]
  inhibition at 10 mg/kg: 66%

## Cc1ccc(C(=O)NC(C)C)cc1C(=O)c1ccc(Nc2ccc(F)cc2F)cc1Cl [Compound 164, 3-[2-Chloro-4-(2,4-difluoro-phenylamino)-benzoyl]-N-isopropyl-4-methyl-benzamide]
TNF-α
  IC50: 2 nM
IL-1β
  IC50: 1.3 nM
[1]
  inhibition at 10 mg/kg: 76%

## Cc1ccc(C(=O)NCC(F)F)cc1C(=O)c1ccc(Nc2ccc(F)cc2F)cc1Cl [Compound 166]
TNF-α
  IC50: 0.4 nM
IL-1β
  IC50: 0.5 nM
[1]
  inhibition at 10 mg/kg: 83%

## C=CCNC(=O)c1ccc(C)c(C(=O)c2ccc(Nc3ccc(F)cc3F)cc2Cl)c1 [Compound 170, N-Allyl-3-[2-chloro-4-(2,4-difluoro-phenylamino)-benzoyl]-4-methyl-benzamide]
TNF-α
  IC50: 2.5 nM
IL-1β
  IC50: 3.2 nM
[1]
  inhibition at 10 mg/kg: 87%

## COc1ccc(C(=O)NCCO)cc1C(=O)c1ccc(Nc2c(F)cccc2F)cc1Cl [Compound 173, 3-[2-Chloro-4-(2,6-difluoro-phenylamino)-benzoyl]-N-(2-hydroxy-ethyl)-4-methoxy-benzamide]
TNF-α
  IC50: 2 nM
IL-1β
  IC50: 2.5 nM
[1]
  inhibition at 10 mg/kg: 90%

## COc1ccc(C(=O)NCCF)cc1C(=O)c1ccc(Nc2c(F)cccc2F)cc1Cl [Compound 174]
TNF-α
  IC50: 2 nM
IL-1β
  IC50: 3.2 nM
[1]
  inhibition at 10 mg/kg: 64%

## COc1ccc(C(=O)NCCCO)cc1C(=O)c1ccc(Nc2c(F)cccc2F)cc1Cl [Compound 176, 3-[2-Chloro-4-(2,6-difluoro-phenylamino)-benzoyl]-N-(3-hydroxy-propyl)-4-methoxy-benzamide]
TNF-α
  IC50: 2 nM
IL-1β
  IC50: 3.2 nM
[1]
  inhibition at 10 mg/kg: 52%

## COc1ccc(C(=O)NC(C)(C)CO)cc1C(=O)c1ccc(Nc2c(F)cccc2F)cc1Cl [Compound 178, 3-[2-Chloro-4-(2,6-difluoro-phenylamino)-benzoyl]-N-(2-hydroxy-1,1-dimethyl-ethyl)-4-methoxy-benzamide]
TNF-α
  IC50: 1.6 nM
IL-1β
  IC50: 6.3 nM
[1]
  inhibition at 10 mg/kg: 67%

## Cc1ccc(C(=O)NCCO)cc1C(=O)c1ccc(Nc2cccc(F)c2C)cc1Cl [Compound 186, 3-[2-Chloro-4-(3-fluoro-2-methyl-phenylamino)-benzoyl]-N-(2-hydroxy-ethyl)-4-methyl-benzamide]
TNF-α
  IC50: 0.5 nM
IL-1β
  IC50: 0.8 nM
[1]
  inhibition at 10 mg/kg: 92%

## Cc1ccc(C(=O)NCCO)cc1C(=O)c1ccc(Nc2ccc(F)cc2Cl)cc1Cl [Compound 188, 3-[2-Chloro-4-(2-chloro-4-fluoro-phenylamino)-benzoyl]-N-(2-hydroxy-ethyl)-4-methyl-benzamide]
TNF-α
  IC50: 0.5 nM
IL-1β
  IC50: 0.9 nM
[1]
  inhibition at 10 mg/kg: 95%

## COc1ccc(C(=O)NCC(F)F)cc1C(=O)c1ccc(Nc2ccc(F)cc2)cc1Cl [Compound 196, 3-[2-Chloro-4-(4-fluoro-phenylamino)-benzoyl]-N-(2,2-difluoro-ethyl)-4-methoxy-benzamide]
TNF-α
  IC50: 1 nM
IL-1β
  IC50: 3.2 nM
[1]
  inhibition at 10 mg/kg: 66%

## COc1ccc(C(=O)NCC(O)CO)cc1C(=O)c1ccc(Nc2ccc(F)cc2)cc1Cl (stereo not drawn) [Compound 198, 3-[2-Chloro-4-(4-fluoro-phenylamino)-benzoyl]-N-(2,3-dihydroxy-propyl)-4-methoxy-benzamide]
TNF-α
  IC50: 0.4 nM
IL-1β
  IC50: 1.1 nM
[1]
  inhibition at 10 mg/kg: 76%

## COc1ccc(C(=O)NCC(O)CO)cc1C(=O)c1ccc(Nc2ccccc2)cc1Cl (stereo not drawn) [Compound 202, 3-(2-Chloro-4-phenylamino-benzoyl)-N-(2,3-dihydroxy-propyl)-4-methoxy-benzamide]
TNF-α
  IC50: 2 nM
IL-1β
  IC50: 5 nM
[1]
  inhibition at 10 mg/kg: 67%

## CSCCC(=O)Nc1ccc(C)c(C(=O)c2ccc(Nc3ccc(F)cc3F)cc2Cl)c1 [Compound 251, N-{3-[2-Chloro-4-(2,4-difluoro-phenylamino)-benzoyl]-4-methyl-phenyl}-3-methylsulfanyl-propionamide]
TNF-α
  IC50: 0.4 nM
IL-1β
  IC50: 1.1 nM
[1]
  inhibition at 10 mg/kg: 49%

## Cc1ccc(NC(=O)NCCO)cc1C(=O)c1ccc(Nc2ccc(F)cc2F)cc1Cl [Compound 260, 1-{3-[2-Chloro-4-(2,4-difluoro-phenylamino)-benzoyl]-4-methyl-phenyl}-3-(2-hydroxy-ethyl)-urea]
TNF-α
  IC50: 0.5 nM
IL-1β
  IC50: 1.8 nM
[1]
  inhibition at 10 mg/kg: 95%

## CCCNC(=O)Nc1ccc(C)c(C(=O)c2ccc(Nc3ccc(F)cc3F)cc2Cl)c1 [Compound 264, 1-{3-[2-Chloro-4-(2,4-difluoro-phenylamino)-benzoyl]-4-methyl-phenyl}-3-propyl-urea]
TNF-α
  IC50: 0.3 nM
IL-1β
  IC50: 1 nM
[1]
  inhibition at 10 mg/kg: 87%

## Cc1ccc(NC(=O)NC2CCCCC2)cc1C(=O)c1ccc(Nc2ccc(F)cc2F)cc1Cl [Compound 266, 1-{3-[2-Chloro-4-(2,4-difluoro-phenylamino)-benzoyl]-4-methyl-phenyl}-3-cyclohexyl-urea]
TNF-α
  IC50: 0.4 nM
IL-1β
  IC50: 0.9 nM
[1]
  inhibition at 10 mg/kg: 54%

## C=CCOC(=O)Nc1ccc(C)c(C(=O)c2ccc(Nc3ccc(F)cc3F)cc2Cl)c1 [Compound 278, {3-[2-Chloro-4-(2,4-difluoro-phenylamino)-benzoyl]-4-methyl-phenyl}-carbamic acid allyl ester]
TNF-α
  IC50: 0.6 nM
IL-1β
  IC50: 1.3 nM
[1]
  inhibition at 10 mg/kg: 65%
